Consider three molecules from ChEMBL document CHEMBL5653615 (J Biol Chem, 2013).

For orientation: inhibition means the drop in the measured response relative to a control, in per cent.

In assay [1] the target is STE20/SPS1-related proline-alanine-rich protein kinase (Homo sapiens) (UniProt Q9UEW8). Put plainly: Inhibition of human STLK3 at 18.6 nM by HotSpot assay relative to control.
The target of assay [2] is T1, Protein kinase C zeta type (Homo sapiens) (UniProt Q05513).
T1 sequence (whole entry): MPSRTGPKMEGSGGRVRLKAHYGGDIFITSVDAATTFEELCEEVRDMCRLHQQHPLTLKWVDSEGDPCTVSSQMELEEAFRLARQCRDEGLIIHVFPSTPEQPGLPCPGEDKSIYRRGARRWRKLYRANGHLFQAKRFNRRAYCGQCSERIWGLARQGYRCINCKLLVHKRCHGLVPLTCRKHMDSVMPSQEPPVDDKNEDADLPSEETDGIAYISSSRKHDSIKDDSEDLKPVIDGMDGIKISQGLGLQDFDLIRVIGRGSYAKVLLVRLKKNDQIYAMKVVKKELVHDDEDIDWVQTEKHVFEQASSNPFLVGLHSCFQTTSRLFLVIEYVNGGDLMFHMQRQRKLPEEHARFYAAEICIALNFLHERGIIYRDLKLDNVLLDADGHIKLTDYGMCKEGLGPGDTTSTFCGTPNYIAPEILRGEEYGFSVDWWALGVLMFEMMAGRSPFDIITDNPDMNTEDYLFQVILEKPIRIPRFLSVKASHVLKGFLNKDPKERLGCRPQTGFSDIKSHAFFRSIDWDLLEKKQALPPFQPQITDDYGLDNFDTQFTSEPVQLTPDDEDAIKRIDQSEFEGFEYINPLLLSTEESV
Put plainly: Inhibition of human PKCzeta at 500 nM by HotSpot assay relative to control.

The species named for assay [3] is Homo sapiens. Nature of the assay: Inhibition of human CDK2/cyclin A at 1.82 nM by HotSpot assay relative to control.
Assay [4] has as its target T2, Myotonin-protein kinase (Homo sapiens) (UniProt Q09013).
T2 sequence (whole entry): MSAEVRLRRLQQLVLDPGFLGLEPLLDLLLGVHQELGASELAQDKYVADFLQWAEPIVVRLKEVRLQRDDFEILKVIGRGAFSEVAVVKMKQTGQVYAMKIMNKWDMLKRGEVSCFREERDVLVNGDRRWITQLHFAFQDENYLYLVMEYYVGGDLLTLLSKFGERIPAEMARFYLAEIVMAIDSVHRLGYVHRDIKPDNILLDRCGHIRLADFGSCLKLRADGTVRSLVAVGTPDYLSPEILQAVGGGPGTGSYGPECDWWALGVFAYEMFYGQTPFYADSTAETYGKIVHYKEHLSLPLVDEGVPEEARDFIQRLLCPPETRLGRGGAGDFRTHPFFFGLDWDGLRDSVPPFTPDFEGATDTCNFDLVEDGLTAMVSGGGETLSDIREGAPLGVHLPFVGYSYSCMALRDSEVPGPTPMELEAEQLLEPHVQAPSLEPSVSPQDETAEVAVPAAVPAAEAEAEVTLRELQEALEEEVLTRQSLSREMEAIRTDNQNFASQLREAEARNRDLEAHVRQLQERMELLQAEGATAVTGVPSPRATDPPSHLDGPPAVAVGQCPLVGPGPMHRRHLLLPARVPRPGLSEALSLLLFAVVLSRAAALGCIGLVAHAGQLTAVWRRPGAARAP
Put plainly: Inhibition of human DMPK at 1.82 nM by HotSpot assay relative to control.

The target of assay [5] is Focal adhesion kinase 1 (Homo sapiens) (UniProt Q05397). Nature of the assay: Inhibition of human FAK at 1.82 nM by HotSpot assay relative to control.
For assay [6], the target named is T3, Serine/threonine-protein kinase ULK1 (Homo sapiens) (UniProt O75385).
T3 sequence (whole entry): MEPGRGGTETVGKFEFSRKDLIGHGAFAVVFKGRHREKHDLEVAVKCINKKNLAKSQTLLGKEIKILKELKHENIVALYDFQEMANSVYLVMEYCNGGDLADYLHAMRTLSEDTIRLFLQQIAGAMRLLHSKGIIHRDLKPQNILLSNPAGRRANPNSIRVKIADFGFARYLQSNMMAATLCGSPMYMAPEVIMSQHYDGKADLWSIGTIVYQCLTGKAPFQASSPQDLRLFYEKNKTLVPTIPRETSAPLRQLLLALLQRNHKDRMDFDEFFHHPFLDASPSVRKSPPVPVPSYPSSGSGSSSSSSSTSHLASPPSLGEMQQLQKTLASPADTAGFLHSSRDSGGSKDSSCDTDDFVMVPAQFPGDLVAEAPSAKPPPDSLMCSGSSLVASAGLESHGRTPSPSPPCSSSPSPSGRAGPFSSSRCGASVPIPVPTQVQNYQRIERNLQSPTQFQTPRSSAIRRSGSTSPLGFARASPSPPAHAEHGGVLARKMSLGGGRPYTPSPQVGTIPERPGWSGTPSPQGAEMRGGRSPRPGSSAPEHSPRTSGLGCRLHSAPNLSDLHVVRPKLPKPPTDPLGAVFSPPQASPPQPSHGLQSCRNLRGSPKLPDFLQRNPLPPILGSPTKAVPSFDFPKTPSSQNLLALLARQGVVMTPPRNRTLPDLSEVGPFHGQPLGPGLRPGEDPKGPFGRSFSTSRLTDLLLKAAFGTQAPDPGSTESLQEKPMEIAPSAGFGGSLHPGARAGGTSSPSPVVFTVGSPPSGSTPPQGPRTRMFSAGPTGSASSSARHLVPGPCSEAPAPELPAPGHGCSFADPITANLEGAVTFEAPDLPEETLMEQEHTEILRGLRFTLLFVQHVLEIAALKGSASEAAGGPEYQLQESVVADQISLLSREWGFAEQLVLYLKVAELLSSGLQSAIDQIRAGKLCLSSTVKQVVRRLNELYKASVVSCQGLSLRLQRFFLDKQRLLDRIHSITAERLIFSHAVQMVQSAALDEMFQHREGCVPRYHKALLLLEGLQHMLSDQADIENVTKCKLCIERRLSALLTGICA
Nature of the assay: Inhibition of human ULK1 at 1.82 nM by HotSpot assay relative to control.

The target in assay [7] is Death-associated protein kinase 3 (Homo sapiens) (UniProt O43293). Nature of the assay: Inhibition of human DAPK3 at 1.82 nM by HotSpot assay relative to control.
In assay [8] the target is Dual specificity protein kinase CLK2 (Homo sapiens) (UniProt P49760). To be noted: dose 1.82 nM.
Sequence of Dual specificity protein kinase CLK2 (Homo sapiens) (P49760 whole entry, looked up): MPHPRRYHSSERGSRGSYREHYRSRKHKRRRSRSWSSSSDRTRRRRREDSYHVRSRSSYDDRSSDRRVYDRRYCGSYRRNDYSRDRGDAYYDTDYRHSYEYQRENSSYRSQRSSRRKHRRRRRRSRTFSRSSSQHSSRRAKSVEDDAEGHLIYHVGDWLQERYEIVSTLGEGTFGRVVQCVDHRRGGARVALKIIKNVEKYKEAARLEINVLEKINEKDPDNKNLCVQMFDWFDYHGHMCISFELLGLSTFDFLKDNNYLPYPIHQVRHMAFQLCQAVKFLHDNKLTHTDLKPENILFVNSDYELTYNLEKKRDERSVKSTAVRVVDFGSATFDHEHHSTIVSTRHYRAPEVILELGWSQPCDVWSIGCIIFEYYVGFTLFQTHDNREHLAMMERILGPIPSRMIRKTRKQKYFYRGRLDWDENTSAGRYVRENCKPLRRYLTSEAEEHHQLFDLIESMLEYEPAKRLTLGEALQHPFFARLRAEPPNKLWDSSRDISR
Description: Inhibition of human CLK2 at 1.82 nM by HotSpot assay relative to control

Sequence of Focal adhesion kinase 1 (Homo sapiens) (Q05397 2-1052 limits assumed): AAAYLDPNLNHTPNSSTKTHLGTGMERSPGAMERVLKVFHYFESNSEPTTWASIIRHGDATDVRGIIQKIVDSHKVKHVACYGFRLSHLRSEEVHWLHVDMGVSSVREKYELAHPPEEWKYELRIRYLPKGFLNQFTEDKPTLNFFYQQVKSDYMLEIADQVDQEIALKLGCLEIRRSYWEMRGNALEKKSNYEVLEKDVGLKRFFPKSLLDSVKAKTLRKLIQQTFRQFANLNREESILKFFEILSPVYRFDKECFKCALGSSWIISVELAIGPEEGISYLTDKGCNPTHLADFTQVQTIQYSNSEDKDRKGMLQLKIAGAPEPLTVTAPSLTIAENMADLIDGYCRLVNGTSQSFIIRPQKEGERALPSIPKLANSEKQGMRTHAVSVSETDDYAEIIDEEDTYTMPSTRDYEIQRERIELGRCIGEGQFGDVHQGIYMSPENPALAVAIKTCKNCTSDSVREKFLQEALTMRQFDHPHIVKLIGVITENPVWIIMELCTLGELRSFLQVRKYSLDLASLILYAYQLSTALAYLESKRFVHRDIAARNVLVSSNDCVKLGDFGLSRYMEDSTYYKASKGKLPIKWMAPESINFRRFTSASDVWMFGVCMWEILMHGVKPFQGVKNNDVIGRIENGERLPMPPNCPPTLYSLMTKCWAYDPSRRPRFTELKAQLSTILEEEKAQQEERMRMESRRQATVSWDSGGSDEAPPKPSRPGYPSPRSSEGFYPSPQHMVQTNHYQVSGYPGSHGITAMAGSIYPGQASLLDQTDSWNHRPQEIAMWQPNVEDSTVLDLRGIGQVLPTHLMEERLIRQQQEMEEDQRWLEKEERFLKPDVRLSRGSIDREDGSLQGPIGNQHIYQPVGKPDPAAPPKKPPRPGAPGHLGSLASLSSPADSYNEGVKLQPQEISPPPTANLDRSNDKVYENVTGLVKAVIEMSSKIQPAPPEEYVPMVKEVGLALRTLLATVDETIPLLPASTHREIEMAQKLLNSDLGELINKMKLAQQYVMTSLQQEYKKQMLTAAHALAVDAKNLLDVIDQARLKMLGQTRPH
Sequence of Death-associated protein kinase 3 (Homo sapiens) (O43293 whole entry, looked up): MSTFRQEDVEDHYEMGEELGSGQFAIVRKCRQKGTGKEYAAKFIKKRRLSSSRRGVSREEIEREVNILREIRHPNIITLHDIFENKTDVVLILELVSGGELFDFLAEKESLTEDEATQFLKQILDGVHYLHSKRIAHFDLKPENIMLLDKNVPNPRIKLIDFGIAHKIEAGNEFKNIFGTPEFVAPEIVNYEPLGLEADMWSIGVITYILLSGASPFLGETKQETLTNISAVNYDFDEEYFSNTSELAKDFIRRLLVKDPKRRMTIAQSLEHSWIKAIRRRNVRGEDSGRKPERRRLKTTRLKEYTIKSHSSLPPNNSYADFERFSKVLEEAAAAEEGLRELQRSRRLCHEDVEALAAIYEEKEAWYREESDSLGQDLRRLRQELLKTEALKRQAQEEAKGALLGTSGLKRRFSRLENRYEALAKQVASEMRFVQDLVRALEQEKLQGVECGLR

On to `C[C@]1(O)C[C@@H](c2nc(-c3ccc4ccc(-c5ccccc5)nc4c3)c3c(N)nccn32)C1`, for which the inhibition in assay [1] is -7.19%.
In the case of `Nc1n[nH]c2nnc(-c3c(-c4ccccc4)nn4ccccc34)cc12`, the inhibition in assay [2] came out at 16.1%.
For the molecule `C[C@@]1(C(=O)Nc2ccc(F)nc2)CCCN1c1nc(Nc2cc(C3CC3)n[nH]2)c2cccn2n1`, the inhibition in assay [3] was 0.69%; in assay [4] it was 2.2%; in assay [5] it was 1.65%; in assay [6], 0.76%; in assay [7], 10.5%; in assay [8], -1.7%.
